The source of these data is publication PMC5908784, “Extracellular loops 2 and 3 of the calcitonin receptor selectively modify agonist binding and efficacy” (Biochemical Pharmacology, 2018).

Positions count from the first letter of the chain named.

What all share (experiment): ERK1/2 phosphorylation
Common to all, as to format: cell-based

For one assay, the target named is T1, hCTR K366A (Homo sapiens, UniProt P30988, K366A).
T1 construct: c-Myc (N); expressed in transfected cells
T1 sequence (P30988 25-474 K366A): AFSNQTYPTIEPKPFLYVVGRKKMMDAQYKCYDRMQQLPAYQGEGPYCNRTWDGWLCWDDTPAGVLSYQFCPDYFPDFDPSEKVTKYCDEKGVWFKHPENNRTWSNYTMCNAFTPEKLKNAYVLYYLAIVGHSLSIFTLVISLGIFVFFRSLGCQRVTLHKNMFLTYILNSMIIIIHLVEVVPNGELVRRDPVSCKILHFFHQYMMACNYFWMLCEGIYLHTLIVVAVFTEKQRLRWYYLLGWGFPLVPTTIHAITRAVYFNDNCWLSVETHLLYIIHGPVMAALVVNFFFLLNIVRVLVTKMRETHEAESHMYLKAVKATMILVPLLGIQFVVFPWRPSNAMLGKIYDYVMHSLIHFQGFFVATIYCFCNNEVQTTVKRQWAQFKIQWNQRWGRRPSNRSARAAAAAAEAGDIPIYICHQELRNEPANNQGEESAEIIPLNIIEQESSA
The note with it: pERK maximal response, CV1-FlpIn cells, mean ± S.E.M. Summed up:
(§1)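 Read-out is phospho-ERK1/2, reported relative to the 10% FBS maximum taken at 6 min. Wells held 2.5 × 10^4 cells seeded the night before. Potency and efficacy reflect functional affinity, efficacy and stimulus-response coupling combined.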

In another assay the target is T2, hCTR L368A (Homo sapiens, UniProt P30988, L368A).
T2 construct: c-Myc (N); expressed in transfected cells
T2 sequence (P30988 25-474 L368A): T1 sequence (P30988 25-474 K366A) with A342K, L344A
As to conditions: pERK maximal response, CV1-FlpIn cells, mean ± S.E.M. The procedure, abridged:
as §1

The target of another assay is T3, hCTR M376A (Homo sapiens, UniProt P30988, M376A).
T3 construct: c-Myc (N); expressed in transfected cells
T3 sequence (P30988 25-474 M376A): T1 sequence (P30988 25-474 K366A) with A342K, M352A
As to conditions: pERK maximal response, CV1-FlpIn cells, mean ± S.E.M. The procedure, abridged:
as §1

The target of the next assay is T4, hCTR V357A (Homo sapiens, UniProt P30988, V357A).
T4 construct: c-Myc (N); expressed in transfected cells
T4 sequence (P30988 25-474 V357A): T1 sequence (P30988 25-474 K366A) with V333A, A342K
As to conditions: pERK maximal response, CV1-FlpIn cells, mean ± S.E.M. The procedure, abridged: as §1

Another assay deals with T5, hCTR W361A (Homo sapiens, UniProt P30988, W361A).
T5 construct: expressed in transfected cells
T5 sequence (P30988 25-474 W361A): T1 sequence (P30988 25-474 K366A) with W337A, A342K
As to conditions: read-out: Emax (% WT). Summed up: as §1

`CC(C)C[C@H](NC(=O)[C@H](CCCCN)NC(=O)CNC(=O)[C@H](CC(C)C)NC(=O)[C@@H](NC(=O)[C@@H]1CSSC[C@H](N)C(=O)N[C@@H](CO)C(=O)N[C@@H](CC(N)=O)C(=O)N[C@@H](CC(C)C)C(=O)N[C@@H](CO)C(=O)N[C@@H]([C@@H](C)O)C(=O)N1)C(C)C)C(=O)N[C@@H](CO)C(=O)N[C@@H](CCC(N)=O)C(=O)N[C@@H](CCC(=O)O)C(=O)N[C@@H](CC(C)C)C(=O)N[C@@H](Cc1c[nH]cn1)C(=O)N[C@@H](CCCCN)C(=O)N[C@@H](CC(C)C)C(=O)N[C@@H](CCC(N)=O)C(=O)N[C@H](C(=O)N[C@@H](Cc1ccc(O)cc1)C(=O)N1CCC[C@H]1C(=O)N[C@@H](CCCNC(=N)N)C(=O)N[C@H](C(=O)N[C@@H](CC(N)=O)C(=O)N[C@H](C(=O)NCC(=O)N[C@@H](CO)C(=O)NCC(=O)N[C@H](C(=O)N1CCC[C@H]1C(N)=O)[C@@H](C)O)[C@@H](C)O)[C@@H](C)O)[C@@H](C)O` [sCT]: the Emax on hCTR K366A is 136 ± 5%; at hCTR L368A, 140 ± 6%; on hCTR M376A, 72 ± 5%; at hCTR V357A, 82 ± 7%; at hCTR W361A, 125 ± 5%.
